The CheMixHub viscosity set
± gives the uncertainty stated by the source.

Test: xn = mol fraction of the nth substance listed

C1CCC2CCCCC2C1 (stereo not given) + C1CCCCC1
298.15 K, 101 kPa
Conditions	viscosity [mPa·s]
x1 = 0.1473	1.061 ± 0.014
x1 = 0.3151	1.26 ± 0.016
x1 = 0.5054	1.48 ± 0.019
x1 = 0.7334	1.77 ± 0.023

CCCCCCCC + C1CCCCC1
Conditions	viscosity [mPa·s]
298.15 K, 100 kPa, x2 = 0.2	0.5398 ± 0.022
298.15 K, 100 kPa, x2 = 0.4	0.5777 ± 0.023
298.15 K, 100 kPa, x2 = 0.6	0.6273 ± 0.025
298.15 K, 100 kPa, x2 = 0.8	0.7162 ± 0.029
298.15 K, 101.33 kPa, x2 = 0.0972	0.516 ± 0.004
298.15 K, 101.33 kPa, x2 = 0.1084	0.5318 ± 0.0049
298.15 K, 101.33 kPa, x2 = 0.2042	0.53 ± 0.004
298.15 K, 101.33 kPa, x2 = 0.2223	0.549 ± 0.005
298.15 K, 101.33 kPa, x2 = 0.3014	0.548 ± 0.004
298.15 K, 101.33 kPa, x2 = 0.3199	0.569 ± 0.0052
298.15 K, 101.33 kPa, x2 = 0.4044	0.568 ± 0.004
298.15 K, 101.33 kPa, x2 = 0.412	0.5851 ± 0.0053
298.15 K, 101.33 kPa, x2 = 0.5009	0.607 ± 0.0055
298.15 K, 101.33 kPa, x2 = 0.5017	0.591 ± 0.004
298.15 K, 101.33 kPa, x2 = 0.5763	0.628 ± 0.0056
298.15 K, 101.33 kPa, x2 = 0.6029	0.62 ± 0.005
298.15 K, 101.33 kPa, x2 = 0.6597	0.6568 ± 0.0058
298.15 K, 101.33 kPa, x2 = 0.7041	0.661 ± 0.005
298.15 K, 101.33 kPa, x2 = 0.7236	0.6788 ± 0.006
298.15 K, 101.33 kPa, x2 = 0.7926	0.7148 ± 0.0062
298.15 K, 101.33 kPa, x2 = 0.8014	0.705 ± 0.005
298.15 K, 101.33 kPa, x2 = 0.8586	0.8162 ± 0.007
298.15 K, 101.33 kPa, x2 = 0.8971	0.774 ± 0.005
298.15 K, 101.33 kPa, x2 = 0.9173	0.8737 ± 0.0074
298.15 K, 101.33 kPa, x2 = 0.9767	0.8737 ± 0.0074
303.15 K, 101 kPa, x2 = 0.1031	0.4956 ± 0.0038
303.15 K, 101 kPa, x2 = 0.1978	0.51 ± 0.0038
303.15 K, 101 kPa, x2 = 0.2979	0.5238 ± 0.0039
303.15 K, 101 kPa, x2 = 0.4018	0.5434 ± 0.004
303.15 K, 101 kPa, x2 = 0.4842	0.5614 ± 0.004
303.15 K, 101 kPa, x2 = 0.7004	0.6348 ± 0.0044
303.15 K, 101 kPa, x2 = 0.8984	0.7473 ± 0.0049
303.15 K, 101.33 kPa, x2 = 0.0972	0.487 ± 0.004
303.15 K, 101.33 kPa, x2 = 0.2042	0.498 ± 0.004
303.15 K, 101.33 kPa, x2 = 0.3014	0.515 ± 0.004
303.15 K, 101.33 kPa, x2 = 0.4044	0.533 ± 0.004
303.15 K, 101.33 kPa, x2 = 0.5017	0.554 ± 0.004
303.15 K, 101.33 kPa, x2 = 0.6029	0.581 ± 0.004
303.15 K, 101.33 kPa, x2 = 0.7041	0.614 ± 0.005
303.15 K, 101.33 kPa, x2 = 0.8014	0.656 ± 0.005
303.15 K, 101.33 kPa, x2 = 0.8971	0.717 ± 0.005
308.15 K, 101.33 kPa, x2 = 0.0972	0.459 ± 0.004
308.15 K, 101.33 kPa, x2 = 0.2042	0.469 ± 0.004
308.15 K, 101.33 kPa, x2 = 0.3014	0.483 ± 0.004
308.15 K, 101.33 kPa, x2 = 0.4044	0.501 ± 0.004
308.15 K, 101.33 kPa, x2 = 0.5017	0.518 ± 0.004
308.15 K, 101.33 kPa, x2 = 0.6029	0.543 ± 0.004
308.15 K, 101.33 kPa, x2 = 0.7041	0.573 ± 0.004
308.15 K, 101.33 kPa, x2 = 0.8014	0.608 ± 0.004
308.15 K, 101.33 kPa, x2 = 0.8971	0.664 ± 0.005
323.15 K, 100 kPa, x2 = 0.2	0.4103 ± 0.017
323.15 K, 100 kPa, x2 = 0.4	0.4326 ± 0.018
323.15 K, 100 kPa, x2 = 0.6	0.4655 ± 0.019
323.15 K, 100 kPa, x2 = 0.8	0.5138 ± 0.021

CCCCCCCCCCCCCC + C1CCCCC1
298.15 K, 101.33 kPa
Conditions	viscosity [mPa·s]
x1 = 0.0144	0.9238 ± 0.0078
x2 = 0.1743	1.907 ± 0.015
x2 = 0.3074	1.756 ± 0.014
x2 = 0.4253	1.621 ± 0.013
x2 = 0.5304	1.486 ± 0.012
x2 = 0.6125	1.384 ± 0.011
x2 = 0.6841	1.291 ± 0.01
x2 = 0.7505	1.207 ± 0.0099
x2 = 0.8066	1.131 ± 0.0093
x2 = 0.8651	1.064 ± 0.0088
x2 = 0.9088	1.01 ± 0.0084
x2 = 0.9483	0.9646 ± 0.0081
